“Also recorded” adds a separate entry of the source. {m7Gppp} = cap: 7-methylguanosine joined 5'-5' by triphosphate; m = 2'-O-methyl; r = 2'-OH (RNA); {P} = phosphate
Legend:
[1] = tested on: viral polymerase (viral cores); assay: Elongation (priming of transcription) of capped RNA fragments by viral cores with NTPs; type: biochemical, Influenza A/PR/8 virus (H1N1); conditions: with NTPs (ATP, CTP, GTP)
[2] = tested on: influenza virus endonuclease (viral polymerase in viral cores); assay: Viral endonuclease cleavage reaction of capped RNA substrates with viral cores; type: biochemical, Influenza A/PR/8 virus (H1N1); conditions: for endonucleolytic cleavage by viral cores (in words): absence of nucleotide triphosphates; for dephosphorylation of the 3' phosphate by the viral polymerase (in words): 3'-phosphate terminated fragments with viral cores
viral cores = conditions: glycerol gradients, reference 3; cited from earlier work

Substance	elongation / priming of transcription by viral cores (in words) [1]	endonucleolytic cleavage by viral cores (in words) [2]	also measured
m^7 GpppGmAAUACU	nor were they able to prime transcription	neither cleaved	–
m^7 GpppGmAAUACUC	nor were they able to prime transcription	neither cleaved	–
m^7 GpppGmAAUACUCAA (GAAUACUCAA; sugars from the 5' end m1 r9, 5' {m7Gppp}, backbone not given here) [ID; NO]	directly primed elongation	–	–
m^7 GpppGmAAUACUCAAGCp (GAAUACUCAAGC; sugars from the 5' end m1 r11, 5' {m7Gppp}, 3' {P}, backbone not given here) [ID; NO]	A small amount of elongation was observed	little cleavage of the C12-P fragment to the G11-OH fragment occurred	dephosphorylation of the 3' phosphate by the viral polymerase (in words) [2]: little if any dephosphorylation
m^7 GpppGmUUUUUAp	–	–	co-sedimentation with viral cores (viral cores): co-sedimented efficiently
m^7 GpppGmAAUACUCAAG-OH (GAAUACUCAAG; sugars from the 5' end m1 r10, 5' {m7Gppp}, backbone not given here) [ID; NO; 5, capped 11-nucleotide cleavage product]	–	did not result in further cleavage	elongation / priming of transcription by viral cores (in words) ([1]; listed as G11-OH): could function as a primer for viral transcription; also recorded: able to prime with an efficiency similar to that obtained with the full-length substrate
m^7 GpppGmAAUACUCA	–	–	elongation / priming of transcription by viral cores (in words) ([1]; listed as A9-OH): inefficiently elongated; also recorded: appeared to promote an abortive elongation product or primed transcription very inefficiently
m^7 GpppGmAAUACUCAAp (GAAUACUCAA; sugars from the 5' end m1 r9, 5' {m7Gppp}, 3' {P}, backbone not given here) [ID; NO]	little elongation	–	dephosphorylation of the 3' phosphate by the viral polymerase (in words) [2]: essentially no cleavage of the 3' phosphate; also recorded: little if any dephosphorylation
m^7 GpppGmAAUACUCAAGC (GAAUACUCAAGC; sugars from the 5' end m1 r11, 5' {m7Gppp}, backbone not given here) [ID; NO]	appeared to prime transcription without cleavage	a minor amount of secondary cleavage to a putative A9-OH fragment occurred	–
m^7 GpppGmAAUACUCAAGp (GAAUACUCAAG; sugars from the 5' end m1 r10, 5' {m7Gppp}, 3' {P}, backbone not given here) [ID; NO]	little elongation	A minor amount of G11-P fragment was cleaved to the A9-OH fragment	elongation / priming of transcription by viral cores (in words) ([1]; listed as G11-p): unable to efficiently prime transcription; dephosphorylation of the 3' phosphate by the viral polymerase (in words) [2]: essentially no cleavage of the 3' phosphate; also recorded: little if any dephosphorylation; dephosphorylation of the 3' phosphate by the viral polymerase (in words) ([2]; listed as G11-p): not converted to the G11-OH fragment
m^7 GpppGmAAUACUCAAGGp	–	cleavage to an 11-base primer resulted	–
m^7 GpppGm	–	–	co-sedimentation with viral cores (viral cores): did not
m^7 GpppGmAAUACUCAAGCUp (GAAUACUCAAGCU; sugars from the 5' end m1 r12, 5' {m7Gppp}, 3' {P}, backbone not given here) [ID; NO]	normal elongation is observed	cleaved in the absence of ribonucleotides to an 11 base primer	–
m^7 GpppGmUp	–	–	co-sedimentation with viral cores (viral cores): did not
